Test results reported in patent US6555356B2, “Methods for microbial regulation” (Unisearch Limited, priority 1995, dated 2003).
In brackets after ≈: the same amount, converted by molar mass.

Assays:
Format in all cases: cell-based
Candida albicans = assay: Fungal growth inhibition zone assay, Candida albicans
Procedure: (§1) In addition to the tests described above, the effects of selected compounds of the general formula 2 on growth of bacteria, one yeast (Candida albicans) and one fungus (Helminthosporium sp.) were assessed. Bacteria were grown in liquid media in the presence of different concentrations of furanones and growth measured via changes in optical density (OD). Fungal assays were done by inoculating agar plates with spores. These plates contained different concentrations of furanone compounds in wells within the plates. Zones of inhibition around these wells were measured after 48 hours.

Helminthosporium sp. = assay: Fungal growth inhibition zone assay, Helminthosporium sp.
Procedure: as §1

Serratia liquefaciens [1] = assay: Serratia liquefaciens swarming assay; conditions: 5-100 μg/ml in LB agar (0.7%) plates
Procedure: (§2) Serratia liquefaciens was grown in liquid LB medium at room temperature to an optical density of 0.3 at 450 nm and stable inoculated onto LB agar (0.7% agar) plates. Plates were incubated at 30° C. and observed regularly for swarming behaviour. The effect on swarming of furanone compounds was tested by adding (after sterilisation and cooling of the agar) compounds 1-13 (FIG. 3). in the concentration range of 5-100 μg/ml, to the plates.

Serratia liquefaciens [2] = assay: Growth of Serratia liquefaciens in liquid LB medium; conditions: 100 μg/ml
Procedure: (§3) The effect on growth of Serratia liquefaciens by furanone compounds was also measured in liquid LB medium by comparing growth of cultures without the addition of compounds versus growth of cultures with added furanone compounds (100 μg/ml of compounds 1-13 (FIG. 3) in separate cultures). Growth was measured as optical density at 450 nm and followed over a 48 hr period.

[3] = test system: Chromobacterium violencia mutant negative for the HSL auto inducer; assay: Chromobacterium violencia (indigo) assay; conditions: for Effect on HSL phenotype: indigo formation: Chromobacterium violencia, 100 μg/ml; for Stimulation of indigo production by the compound itself: indigo negative Chromobacterium violencia mutant, addition of compound
Procedure: (§4) A mutant of Chromobacterium violencia negative for the HSL auto inducer was used in the assay. The strain was pour plated in LB medium at high density and wells were punched after the media had set. Sterile, filtered supernatants from various HSL producing strains were added to the wells. Plates were incubated at 30° C. and observed for the formation of purple zones (due to […]) around the wells. The effects of furanone compounds 1 and 2 (FIG. 3) were assessed by running this assay on plates of LB medium containing furanone compounds at a concentration of 100 μg/ml. The effects of the compounds on growth of Chromobacterium were assessed as above.

[4] = test system: Chromobacterium violencia; assay: Growth of Chromobacterium violencia; conditions: 100 μg/ml
Procedure: as §3, §4

Pseudomonas aeruginosa [5] = assay: Pseudomonas aeruginosa (elastase) assay; conditions: 100 μg/ml in elastin agar
Procedure: (§5) Inoculants from precultures were streaked onto Peptone-Tryptic Soy Broth agar containing 0.3% elastin. Plates were incubated at 37° C. and observed for hydrolysis of the elastin. The effect of furanone compounds was assess by adding compounds 1-4 (100 μg/ml) to the plates and comparing zones of hydrolysis in plates with and without the compounds.

Pseudomonas aeruginosa [6] = assay: Growth of Pseudomonas aeruginosa on plates; conditions: 100 μg/ml
Procedure: as §5

Vibrio fisheri [7] = assay: Vibrio fisheri bioluminescence assay; conditions: 100 μg/ml, visual inspection of agar plates
Procedure: (§6) Initial assays for both strains of Vibrio were streaked onto LB agar plates (with 2% NaCl) with and without furanone compounds 1-4 at 5-100 μg/ml. Bioluminescence of the plates was visually assessed after 24 hours of incubation at room temperature. In subsequent assays, both strains were grown in liquid culture in the presence of furanones. Bioluminescence was assayed via a luminometer. The effects of furanones on growth of both strains were assayed as above.

Vibrio harveyi [8] = assay: Vibrio harveyi bioluminescence assay; conditions: 100 μg/ml, visual inspection of agar plates
Procedure: as §6

Vibrio fisheri [9] = assay: Growth of Vibrio fisheri
Procedure: as §3, §6

Vibrio harveyi [10] = assay: Growth of Vibrio harveyi
Procedure: as §3, §6

strain R12 [11] = assay: Marine isolate swimming, strain R12
strain R12 [12] = assay: Marine isolate growth in liquid media, strain R12
Procedure: as §3
(§7) Methods followed those described for Serratia liquefaciens (above). Inhibition of growth of these bacteria by furanones was assessed as above.

strain R12 [13] = assay: Marine isolate swarming, strain R12
Procedure: as §2, §7

strain R86 [14] = assay: Marine isolate swimming, strain R86
strain R86 [15] = assay: Marine isolate growth in liquid media, strain R86
Procedure: as §3, §7

strain R86 [16] = assay: Marine isolate swarming, strain R86
Procedure: as §2, §7

strain R130 [17] = assay: Marine isolate swimming, strain R130
strain R130 [18] = assay: Marine isolate growth in liquid media, strain R130
Procedure: as §3, §7

strain R130 [19] = assay: Marine isolate swarming, strain R130
Procedure: as §2, §7

strain V21 [20] = assay: Marine isolate swimming, strain V21
strain V21 [21] = assay: Marine isolate growth in liquid media, strain V21
Procedure: as §3, §7

strain V21 [22] = assay: Marine isolate swarming, strain V21
Procedure: as §2, §7

strain V54 [23] = assay: Marine isolate swimming, strain V54
strain V54 [24] = assay: Marine isolate growth in liquid media, strain V54
Procedure: as §3, §7

strain V54 [25] = assay: Marine isolate swarming, strain V54
Procedure: as §2, §7

strain V55 [26] = assay: Marine isolate swimming, strain V55
strain V55 [27] = assay: Marine isolate growth in liquid media, strain V55
Procedure: as §3, §7

strain V55 [28] = assay: Marine isolate swarming, strain V55
Procedure: as §2, §7

Compound | width of inhibition zone (Candida albicans; amount added 0.1 μg) | width of inhibition zone (Candida albicans; amount added 1 μg) | width of inhibition zone (Candida albicans; amount added 10 μg) | width of inhibition zone (Candida albicans; amount added 100 μg) | width of inhibition zone (Helminthosporium sp.; amount added 0.1 μg) [mm] | width of inhibition zone (Helminthosporium sp.; amount added 1 μg) | width of inhibition zone (Helminthosporium sp.; amount added 10 μg) | width of inhibition zone (Helminthosporium sp.; amount added 100 μg) | Effect on HSL phenotype: swarming (Serratia liquefaciens [1]) | Effect on bacterial growth (Serratia liquefaciens [2]) | Effect on HSL phenotype: indigo formation [3] | Stimulation of indigo production by the compound itself [3] | Effect on bacterial growth [4] | Effect on HSL phenotype: elastase (Pseudomonas aeruginosa [5]) | Effect on HSL phenotype: luminescence (Vibrio fisheri [7]) | Effect on HSL phenotype: luminescence (Vibrio harveyi [8]) | Effect on bacterial growth (Vibrio fisheri [9]) | Effect on bacterial growth (Vibrio harveyi [10]) | Minimum inhibitory concentration, Swimming (strain R12 [11]) [µg/mL] | Minimum inhibitory concentration, Growth (strain R12 [12]) [µg/mL] | also measured
CCCCC1=CC(=C(Br)Br)OC1=O [Compound 8] | 0 mm | 0 mm | 0 mm | 0 mm | 0 | 0 mm | 0 mm | 20 mm |  |  |  |  |  |  |  |  |  |  |  |  | 
CCCCC1=C(Br)C(=CBr)OC1=O [Compound 2] | 0 mm | 0 mm | 0 mm | 2-3 mm | 0 | 0 mm | 2-4 mm | 20 mm | inhibit | no effect | inhibit | do not stimulate | no effect | stimulated | inhibit | inhibit | no effect | no effect | >50 | >50 | Effect on bacterial growth (Pseudomonas aeruginosa [6]): no detectable effect; Minimum inhibitory concentration, Swarming (strain R12 [13]): 5 µg/mL (≈ 16.1 µM); Minimum inhibitory concentration, Swimming (strain R86 [14]): >50 µg/mL; Minimum inhibitory concentration, Growth (strain R86 [15]): >50 µg/mL; Minimum inhibitory concentration, Swarming (strain R86 [16]): 5 µg/mL (≈ 16.1 µM); Minimum inhibitory concentration, Swimming (strain R130 [17]): >50 µg/mL; Minimum inhibitory concentration, Growth (strain R130 [18]): >50 µg/mL; Minimum inhibitory concentration, Swarming (strain R130 [19]): 25 µg/mL (≈ 80.6 µM); Minimum inhibitory concentration, Swimming (strain V21 [20]): 25 µg/mL (≈ 80.6 µM); Minimum inhibitory concentration, Growth (strain V21 [21]): 25 µg/mL (≈ 80.6 µM); Minimum inhibitory concentration, Swarming (strain V21 [22]): 5 µg/mL (≈ 16.1 µM); Minimum inhibitory concentration, Swimming (strain V54 [23]): 5 µg/mL (≈ 16.1 µM); Minimum inhibitory concentration, Growth (strain V54 [24]): >50 µg/mL; Minimum inhibitory concentration, Swarming (strain V54 [25]): 5 µg/mL (≈ 16.1 µM); Minimum inhibitory concentration, Swimming (strain V55 [26]): 5 µg/mL (≈ 16.1 µM); Minimum inhibitory concentration, Growth (strain V55 [27]): >50 µg/mL; Minimum inhibitory concentration, Swarming (strain V55 [28]): 5 µg/mL (≈ 16.1 µM)
CCCCC1=C(Br)C(=C(Br)Br)OC1=O [Compound 1] | 0 mm | 0 mm | 0 mm | 1-2 mm | 0 | 0 mm | 2-5 mm | 20 mm | inhibit | no effect | inhibit | do not stimulate | no effect | stimulated | inhibit | inhibit | no effect | no effect | >50 | >50 | Minimum inhibitory concentration, Swarming (strain R12 [13]): 5 µg/mL (≈ 12.9 µM); Minimum inhibitory concentration, Swimming (strain R86 [14]): 50 µg/mL (≈ 129 µM); Minimum inhibitory concentration, Growth (strain R86 [15]): >50 µg/mL; Minimum inhibitory concentration, Swarming (strain R86 [16]): 25 µg/mL (≈ 64.3 µM); Minimum inhibitory concentration, Swimming (strain R130 [17]): >50 µg/mL; Minimum inhibitory concentration, Growth (strain R130 [18]): >50 µg/mL; Minimum inhibitory concentration, Swarming (strain R130 [19]): 25 µg/mL (≈ 64.3 µM); Minimum inhibitory concentration, Swimming (strain V21 [20]): 25 µg/mL (≈ 64.3 µM); Minimum inhibitory concentration, Growth (strain V21 [21]): 25 µg/mL (≈ 64.3 µM); Minimum inhibitory concentration, Swarming (strain V21 [22]): 5 µg/mL (≈ 12.9 µM); Minimum inhibitory concentration, Swimming (strain V54 [23]): 5 µg/mL (≈ 12.9 µM); Minimum inhibitory concentration, Growth (strain V54 [24]): >50 µg/mL; Minimum inhibitory concentration, Swarming (strain V54 [25]): 25 µg/mL (≈ 64.3 µM); Minimum inhibitory concentration, Swimming (strain V55 [26]): 5 µg/mL (≈ 12.9 µM); Minimum inhibitory concentration, Growth (strain V55 [27]): >50 µg/mL; Minimum inhibitory concentration, Swarming (strain V55 [28]): 5 µg/mL (≈ 12.9 µM)
CCCC(OC(C)=O)C1=C(Br)C(=CI)OC1=O (stereo not drawn) [Compound 5] | 0 mm | 0 mm | 1 mm | 3-8 mm | 0 | 2-4 mm | 9-13 mm | 20 mm |  |  |  |  |  |  |  |  |  |  |  |  | 
CCCCCCC1=CC(=C(Br)Br)OC1=O [Compound 13] | 0 mm | 0 mm | 0 mm | 1 mm | 0 | 0 mm | 0 mm | 0 mm |  |  |  |  |  |  |  |  |  |  |  |  | 
C[C@@H]1[C@H](O)[C@@H](C)/C=C/C=C/C=C/C=C/C=C/C=C/C=C/[C@H](O[C@@H]2O[C@H](C)[C@@H](O)[C@H](N)[C@@H]2O)C[C@@H]2O[C@](O)(C[C@@H](O)C[C@@H](O)[C@H](O)CC[C@@H](O)C[C@@H](O)CC(=O)O[C@H]1C)C[C@H](O)[C@H]2C(=O)O [Amphotericin B, reference compound] | 2-4 mm | 5-7 mm | 6-10 mm | 1.14 mm | 2 | 6 mm | 6-8 mm | 7-10 mm |  |  |  |  |  |  |  |  |  |  |  |  | 
